What all share (assay type): biochemical
Assay [1] deals with T1, MMP-8 (Homo sapiens, UniProt P22894).
T1 construct: purchased R&D Systems 908-MP
Description: In vitro MMP-8 inhibition test. The source says:
(§1) The MMP-mediated amidolytic cleavage of a suitable peptide substrate leads to an increase in fluorescent light here too. The signal intensity of the fluorescent light is directly proportional to the enzyme activity. The active concentration of a test compound at which half the enzyme is inhibited (50% signal intensity of the fluorescent light) is reported as the […].
(§2) Recombinant MMP-8 (from R&D Systems, 908-MP) is chemically activated in accordance with the manufacturer's instructions using APMA. 1 μl of the test compound to be analysed (as a solution in DMSO, suitable concentrations, for example, 1 nM to 30 μM) is pipetted into 24 μl of activated enzyme (final concentration, for example, 0.5 nM) in reaction buffer (50 mM Tris/HCl pH 7.5, 10 mM CaCl2, 150 mM NaCl, 0.05% Brij®-35) in a white 384-hole microtiter plate (MTP). The enzymatic reaction is started by adding the intramolecularly quenched Mca-Pro-Leu-Gly-Leu-Dpa(Dnp)-Ala-Arg-NH2 substrate (final concentration, for example, 10 μM; R&D Systems, ES-001), so as to result in a total test volume of 50 μl. The course of the MMP-8 reaction is measured by measuring the fluorescence intensity (excitation 320 nm, emission 410 nm) over a suitable period of time (for example over 120 min at a temperature of 32° C.).

Assay [2] concerns the target T2, mouse MMP-7 (Mus musculus, UniProt Q10738).
T2 construct: purchased R&D Systems 2967-MP
T2 sequence (Q10738 95-264): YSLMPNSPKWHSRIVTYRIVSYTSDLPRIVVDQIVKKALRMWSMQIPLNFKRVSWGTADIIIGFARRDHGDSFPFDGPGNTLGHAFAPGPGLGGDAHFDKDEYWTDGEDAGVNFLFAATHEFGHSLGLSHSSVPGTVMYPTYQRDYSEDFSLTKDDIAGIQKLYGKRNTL
The assay can be described thus: In vitro mouse MMP-7 inhibition test.
Text: as §1
as §2, with “Recombinant mouse MMP-7” for “Recombinant MMP-8”, “Systems, 2967-MP)” for “Systems, 908-MP)”, “quenched Mca-Lys-Pro-Leu-Gly-Leu-Dpa(Dnp)-Ala-Arg-NH2” for “quenched Mca-Pro-Leu-Gly-Leu-Dpa(Dnp)-Ala-Arg-NH2”, “example, 5” for “example, 10”, “Systems, ES-010),” for “Systems, ES-001),”, “the MMP-7” for “the MMP-8”

The target in assay [3] is T3, mouse MMP-3 (Mus musculus, UniProt P28862).
T3 construct: purchased R&D Systems 548-MP
T3 sequence (P28862 100-477): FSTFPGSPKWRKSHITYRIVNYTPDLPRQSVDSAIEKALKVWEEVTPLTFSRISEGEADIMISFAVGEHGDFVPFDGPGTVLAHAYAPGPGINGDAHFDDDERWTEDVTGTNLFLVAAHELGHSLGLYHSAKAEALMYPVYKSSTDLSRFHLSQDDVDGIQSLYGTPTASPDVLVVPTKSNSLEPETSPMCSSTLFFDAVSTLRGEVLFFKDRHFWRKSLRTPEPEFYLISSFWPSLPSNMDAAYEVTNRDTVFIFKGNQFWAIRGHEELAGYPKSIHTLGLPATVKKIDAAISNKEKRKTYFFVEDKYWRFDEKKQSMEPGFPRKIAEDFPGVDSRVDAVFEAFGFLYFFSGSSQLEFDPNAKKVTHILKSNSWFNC
Description: In vitro mouse MMP-3 inhibition test.

The target of assay [4] is T4, MMP-10 (Homo sapiens, UniProt P09238).
T4 construct: purchased R&D Systems 910-MP
T4 sequence (P09238 99-476): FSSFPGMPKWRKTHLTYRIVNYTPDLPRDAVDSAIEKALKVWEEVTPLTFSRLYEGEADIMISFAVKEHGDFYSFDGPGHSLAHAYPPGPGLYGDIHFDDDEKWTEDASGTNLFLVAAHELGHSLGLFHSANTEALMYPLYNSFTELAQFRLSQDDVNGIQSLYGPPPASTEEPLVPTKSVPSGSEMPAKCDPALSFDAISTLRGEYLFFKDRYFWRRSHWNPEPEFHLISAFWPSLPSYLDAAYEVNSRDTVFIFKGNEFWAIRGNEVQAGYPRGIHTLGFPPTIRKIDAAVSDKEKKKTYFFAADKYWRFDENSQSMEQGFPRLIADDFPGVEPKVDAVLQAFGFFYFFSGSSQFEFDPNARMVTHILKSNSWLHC
The assay can be described thus: In vitro MMP-10 inhibition test.
Text: as §1
as §2, with “MMP-10” for “MMP-8”, “910-MP)” for “908-MP)”, “2” for “0.5”, “Mca-Arg-Pro-Lys-Pro-Val-Glu-Nval-Trp-Arg-Lys(Dnp)-NH2” for “Mca-Pro-Leu-Gly-Leu-Dpa(Dnp)-Ala-Arg-NH2”, “ES-002),” for “ES-001),”

Assay [5] concerns the target T5, MMP-2 (Homo sapiens, UniProt P08253).
T5 construct: purchased R&D Systems 902-MP
T5 sequence (P08253 110-660): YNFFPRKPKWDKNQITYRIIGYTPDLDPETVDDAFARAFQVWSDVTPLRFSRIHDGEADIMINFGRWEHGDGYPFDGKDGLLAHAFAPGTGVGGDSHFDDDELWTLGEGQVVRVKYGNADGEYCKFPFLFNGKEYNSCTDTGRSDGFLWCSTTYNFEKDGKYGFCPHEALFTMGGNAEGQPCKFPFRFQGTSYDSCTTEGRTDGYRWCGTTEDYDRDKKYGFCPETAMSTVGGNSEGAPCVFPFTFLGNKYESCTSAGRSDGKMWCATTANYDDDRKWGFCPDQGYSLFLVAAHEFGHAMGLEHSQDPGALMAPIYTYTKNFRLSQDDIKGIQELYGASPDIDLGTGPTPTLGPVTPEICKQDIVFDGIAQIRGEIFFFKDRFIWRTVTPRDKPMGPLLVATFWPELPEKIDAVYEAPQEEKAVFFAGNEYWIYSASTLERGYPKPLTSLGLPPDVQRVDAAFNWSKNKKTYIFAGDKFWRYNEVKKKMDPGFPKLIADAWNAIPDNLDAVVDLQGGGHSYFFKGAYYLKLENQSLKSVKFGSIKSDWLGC
The assay can be described thus: In vitro MMP-2 inhibition test.
Text: as §1
as §2, with “MMP-2” for “MMP-8”, “902-MP)” for “908-MP)”, “2” for “0.5”

T1 sequence (P22894 101-467): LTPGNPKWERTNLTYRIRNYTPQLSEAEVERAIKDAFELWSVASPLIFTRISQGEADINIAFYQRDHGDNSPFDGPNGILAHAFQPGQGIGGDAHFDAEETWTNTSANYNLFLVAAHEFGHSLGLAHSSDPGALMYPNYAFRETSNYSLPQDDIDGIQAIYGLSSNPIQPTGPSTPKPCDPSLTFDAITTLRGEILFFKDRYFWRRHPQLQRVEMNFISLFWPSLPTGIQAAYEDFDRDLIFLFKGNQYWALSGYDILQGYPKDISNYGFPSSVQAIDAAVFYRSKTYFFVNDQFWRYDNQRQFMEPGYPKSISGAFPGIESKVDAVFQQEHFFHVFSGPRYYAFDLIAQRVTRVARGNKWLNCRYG

As for `O=C(O)[C@@H]1[C@@H](Cn2nnc3ccccc3c2=O)CC[C@H]1C(=O)c1ccc(OCC2CCOCC2)cc1` (stereo in doubt) [Example 2, (+)-(1RS,2SR,5RS)-2-[(4-Oxo-1,2,3-benzotriazin-3(4H)-yl)methyl]-5-[4-(tetrahydro-2H-pyran-4-ylmethoxy)benzoyl]cyclopentanecarboxylic acid], the IC50 was 4.7 nM in assay [1]; 52 nM in assay [2]; 710 nM in assay [3]; 80 nM in assay [4]; 60 nM in assay [5].

In the case of `Cc1ccc2nnn(C[C@H]3CC[C@@H](C(=O)c4ccc(OCCC5CCOCC5)cc4)[C@@H]3C(=O)O)c(=O)c2c1` (single isomer, unassigned) [Example 20, (+)-(1RS,2SR,5RS)-2-[(6-Methyl-4-oxo-1,2,3-benzotriazin-3(4H)-yl)methyl]-5-{4-[2-(tetrahydro-2H-pyran-4-yl)ethoxy]benzoyl}cyclopentanecarboxylic acid], the half-inhibitory concentration (IC50) worked out at 10 nM in assay [1]; 200 nM in assay [2]; 670 nM in assay [3]; 31 nM in assay [4]; 300 nM in assay [5].

On to `O=C(O)[C@H]1[C@H](Cn2nnc3ccc(C(F)(F)F)cc3c2=O)CC[C@@H]1C(=O)c1ccc(OCCC2CCOCC2)cc1` (stereo in doubt) [Example 10, (+/−)-(1RS ,2S R,5RS)-2-{[4-Oxo-6-(trifluoromethyl)-1,2,3-benzotriazin-3(4H)-yl]methyl}-5-{4-[2-(tetrahydro-2H-pyran-4-yl)ethoxy]benzoyl}cyclopentanecarboxylic acid], for which the IC50 in assay [1] came out at 3.9 nM; in assay [2] it was 130 nM; in assay [3], 120 nM; in assay [4], 5100 nM; in assay [5] it was 220 nM.

Take `O=C(O)[C@@H]1[C@@H](Cn2nnc3ccccc3c2=O)CC[C@H]1C(=O)c1ccc(OCCC2CCOCC2)cc1` (single isomer, unassigned) [Example 5, (+)-(1RS,2SR,5RS)-2-[(4-Oxo-1,2,3-benzotriazin-3(4H)-yl)methyl]-5-{4-[2-(tetrahydro-2H-pyran-4-yl)ethoxy]benzoyl}cyclopentanecarboxylic acid]: the IC50 in assay [1] came to 15 nM; in assay [2], 130 nM; in assay [3] it was 270 nM; in assay [4], 13 nM; in assay [5], 44 nM.

For the origin of these results see patent publication US20170114049A1, “2,5-DISUBSTITUTED CYCLOPENTANE CARBOXYLIC ACIDS FOR THE TREATMENT OF RESPIRATORY TRACT DISEASES” (BAYER PHARMA AKTIENGESELLSCHAFT, priority 2014, published 2017).
